Measured values as given in patent publication USRE42890E1, “Furazanobenzimidazoles” (Basilea Pharmaceutica AG, priority 2003, dated 2011).

Assays:
Jurkat = experiment: MTS proliferation assay, Jurkat; assay type: cell-based, human; details: 72 h incubation, read-out: MTS proliferation assay IC 50 Jurkat
How it was run: (§1)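 Seed cells (1.5*10^3-10^4/well) 24 h ahead; add compound, final 10/3/1/0.3 μM; incubate 72 h, 37 °C, 7.5% CO2; MTS 3 h; read A492.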

Jily = experiment: MTS proliferation assay, Jily; assay type: cell-based; details: 72 h incubation, read-out: MTS proliferation assay IC 50 Jily
How it was run: (§2)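 RPMI-1640 + 5% or 10% FCS; seeded 24 h pre-dose; cpd final 10/3/1/0.3 μM, max 5% DMSO in added volume; 72 h, 37° C, 7.5% CO2; MTS 3 h; A492.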

HT1080 = experiment: MTS proliferation assay, HT1080; assay type: cell-based, human; details: HT1080, 72 h incubation; read-out: MTS proliferation assay IC 50 HT1080
How it was run: as §1

HeLa = experiment: MTS proliferation assay, HeLa; assay type: cell-based, human; details: 72 h incubation, read-out: MTS proliferation assay IC 50 HeLa
How it was run: as §1

MRC5 = experiment: MTS proliferation assay, MRC5; assay type: cell-based; details: MRC5, 72 h incubation; read-out: MTS proliferation assay IC 50 MRC5
How it was run: as §2

[1] = system: adherent cells or suspension cells; experiment: Hoechst 33342 nuclear staining (fraction of apoptotic nuclei); assay type: cell-based; parameters: key: 0 relating to no activity; 1 relating to weak activity comprising less than 70% of the cells; score 2 relating to strong activity comprising more than 70% of the cells

Structure (SMILES)	IC50 (Jurkat)	IC50 (Jily)	IC50 (HT1080)	IC50 (HeLa)	IC50 (MRC5)	Hoechst 33342 nuclear staining score ([1]; H460, conc 0.01 μm)	Hoechst 33342 nuclear staining score ([1]; H460, conc 0.1 μm)	Hoechst 33342 nuclear staining score ([1]; H460, conc 1 μm)	Hoechst 33342 nuclear staining score ([1]; HeLa, conc 0.01 μm)	Hoechst 33342 nuclear staining score ([1]; HeLa, conc 0.1 μm)	Hoechst 33342 nuclear staining score ([1]; HeLa, conc 1 μm)	Hoechst 33342 nuclear staining score ([1]; Jily, conc 0.01 μm)	Hoechst 33342 nuclear staining score ([1]; Jily, conc 0.1 μm)	Hoechst 33342 nuclear staining score ([1]; Jily, conc 1 μm)	Hoechst 33342 nuclear staining score ([1]; Jurkat, conc 0.01 μm)	Hoechst 33342 nuclear staining score ([1]; Jurkat, conc 0.1 μm)	Hoechst 33342 nuclear staining score ([1]; Jurkat, conc 1 μm)	Hoechst 33342 nuclear staining score ([1]; MRC5, conc 0.01 μm)	Hoechst 33342 nuclear staining score ([1]; MRC5, conc 0.1 μm)	Hoechst 33342 nuclear staining score ([1]; MRC5, conc 1 μm)	also measured
Nc1nonc1-c1nc2ccccc2n1COc1ccc(Br)cc1 [Example 89]	10 to 100 nM	10 to 100 nM	10 to 100 nM	10 to 100 nM	100 to 1000 nM	0	2 (score 2 relating to strong activity comprising more than 70% of the cells)	2 (score 2 relating to strong activity comprising more than 70% of the cells)	0	2 (score 2 relating to strong activity comprising more than 70% of the cells)	2 (score 2 relating to strong activity comprising more than 70% of the cells)	0	2 (score 2 relating to strong activity comprising more than 70% of the cells)	2 (score 2 relating to strong activity comprising more than 70% of the cells)	0	2 (score 2 relating to strong activity comprising more than 70% of the cells)	2 (score 2 relating to strong activity comprising more than 70% of the cells)	0	2 (score 2 relating to strong activity comprising more than 70% of the cells)	2 (score 2 relating to strong activity comprising more than 70% of the cells)	Hoechst 33342 nuclear staining score ([1]; PBLs, conc 0.01 μm): 0; Hoechst 33342 nuclear staining score ([1]; PBLs, conc 0.1 μm): 0; Hoechst 33342 nuclear staining score ([1]; PBLs, conc 1 μm): 0
Cl.Nc1ccc(C(=O)Cn2c(-c3nonc3N)nc3ccccc32)cc1 [Example 51]	10 to 100 nM	10 to 100 nM	10 to 100 nM	10 to 100 nM	10 to 100 nM	0	2 (score 2 relating to strong activity comprising more than 70% of the cells)	2 (score 2 relating to strong activity comprising more than 70% of the cells)	0	2 (score 2 relating to strong activity comprising more than 70% of the cells)	2 (score 2 relating to strong activity comprising more than 70% of the cells)	0	2 (score 2 relating to strong activity comprising more than 70% of the cells)	2 (score 2 relating to strong activity comprising more than 70% of the cells)	1 (1 relating to weak activity comprising less than 70% of the cells)	2 (score 2 relating to strong activity comprising more than 70% of the cells)	2 (score 2 relating to strong activity comprising more than 70% of the cells)	0	2 (score 2 relating to strong activity comprising more than 70% of the cells)	2 (score 2 relating to strong activity comprising more than 70% of the cells)	Hoechst 33342 nuclear staining score ([1]; PBLs, conc 0.01 μm): 0; Hoechst 33342 nuclear staining score ([1]; PBLs, conc 0.1 μm): 0; Hoechst 33342 nuclear staining score ([1]; PBLs, conc 1 μm): 0
Nc1nonc1-c1nc2ccccc2n1CC(=O)c1cccc(Cl)c1 [Example 35]	10 to 100 nM	10 to 100 nM	100 to 1000 nM	10 to 100 nM	100 to 1000 nM	0	0	2 (score 2 relating to strong activity comprising more than 70% of the cells)	0	0	2 (score 2 relating to strong activity comprising more than 70% of the cells)	0	1 (1 relating to weak activity comprising less than 70% of the cells)	2 (score 2 relating to strong activity comprising more than 70% of the cells)	0	2 (score 2 relating to strong activity comprising more than 70% of the cells)	2 (score 2 relating to strong activity comprising more than 70% of the cells)	0	2 (score 2 relating to strong activity comprising more than 70% of the cells)	2 (score 2 relating to strong activity comprising more than 70% of the cells)	Hoechst 33342 nuclear staining score ([1]; PBLs, conc 0.01 μm): 0; Hoechst 33342 nuclear staining score ([1]; PBLs, conc 0.1 μm): 0; Hoechst 33342 nuclear staining score ([1]; PBLs, conc 1 μm): 0
N#CCCNc1nonc1-c1nc2ccccc2n1CC(=O)c1ccc(Br)cc1 [Example 47]	< 10 nM	< 10 nM	10 to 100 nM	10 to 100 nM	100 to 1000 nM	0	2 (score 2 relating to strong activity comprising more than 70% of the cells)	2 (score 2 relating to strong activity comprising more than 70% of the cells)	0	2 (score 2 relating to strong activity comprising more than 70% of the cells)	2 (score 2 relating to strong activity comprising more than 70% of the cells)	0	2 (score 2 relating to strong activity comprising more than 70% of the cells)	2 (score 2 relating to strong activity comprising more than 70% of the cells)	2 (score 2 relating to strong activity comprising more than 70% of the cells)	2 (score 2 relating to strong activity comprising more than 70% of the cells)	2 (score 2 relating to strong activity comprising more than 70% of the cells)	0	2 (score 2 relating to strong activity comprising more than 70% of the cells)	2 (score 2 relating to strong activity comprising more than 70% of the cells)	Hoechst 33342 nuclear staining score ([1]; PBLs, conc 0.01 μm): 0; Hoechst 33342 nuclear staining score ([1]; PBLs, conc 0.1 μm): 0; Hoechst 33342 nuclear staining score ([1]; PBLs, conc 1 μm): 0
COc1cccc(/C=C/C(=O)Cn2c(-c3nonc3N)nc3ccccc32)c1 [Example 120]	> 1000 nM	> 1000 nM	> 1000 nM	> 1000 nM	> 1000 nM	0	0	0	0	0	0	0	0	0	0	0	0	0	0	0	Hoechst 33342 nuclear staining score ([1]; PBLs, conc 0.01 μm): 0; Hoechst 33342 nuclear staining score ([1]; PBLs, conc 0.1 μm): 0; Hoechst 33342 nuclear staining score ([1]; PBLs, conc 1 μm): 0
N#CCCNc1nonc1-c1nc2ccccc2n1CC(=O)c1ccc(N)cc1.O=C(O)C(=O)O [Example 61]	10 to 100 nM	10 to 100 nM	10 to 100 nM	10 to 100 nM	10 to 100 nM	0	2 (score 2 relating to strong activity comprising more than 70% of the cells)	2 (score 2 relating to strong activity comprising more than 70% of the cells)	0	2 (score 2 relating to strong activity comprising more than 70% of the cells)	2 (score 2 relating to strong activity comprising more than 70% of the cells)	0	2 (score 2 relating to strong activity comprising more than 70% of the cells)	2 (score 2 relating to strong activity comprising more than 70% of the cells)	0	2 (score 2 relating to strong activity comprising more than 70% of the cells)	2 (score 2 relating to strong activity comprising more than 70% of the cells)	0	2 (score 2 relating to strong activity comprising more than 70% of the cells)	2 (score 2 relating to strong activity comprising more than 70% of the cells)	Hoechst 33342 nuclear staining score ([1]; PBLs, conc 0.01 μm): 0; Hoechst 33342 nuclear staining score ([1]; PBLs, conc 0.1 μm): 0; Hoechst 33342 nuclear staining score ([1]; PBLs, conc 1 μm): 0
